Measurements from US20210113522A1, “COUMARIN DERIVATIVE AS ANTI-ASTHMATIC AGENT, PHARMACEUTICAL COMPOSITION THEREOF, ITS PREPARATION AND USE” (I-NOVA MEDICINSKA ISTRAZIVANJA D.O.O., priority 2017, published 2021).

Test system: OVA-induced airway inflammation
Assay: OVA model of lung eosinophilia: differential cell count of bronchoalveolar lavage (BAL) cells
Format: in vivo, Balb/c mice
Details: vs PBS-treated OVA mice; 1 2 mg/kg preventively or therapeutically, beclomethasone 1 mg/kg, via the airway
Description: The study was performed on female 8-week old Balb/c mice. The animals were kept under specific-pathogen-free (SPF) conditions with temperature control and HEPA system for breeding of laboratory animals. Experiments were performed during the light phase of the cycle. 40 mice (n=10/group) were separated into 4 groups:
Group 1: OVA only Group 2: OVA+BECLOMETHASONE (1 mg/kg) Group 3: OVA+Compound 1 (preventively; 2 mg/kg) Group 4: OVA+Compound 1 (therapeutically; 2 mg/kg)
Each group of mice was sensitized on days 0 and 14 with 20 μg/mouse of OVA adsorbed on 2 mg alum. On days 20, 21 and 22 the animals were stimulated with 100 μg/mouse OVA intranasally in a final volume of 50 μL/mouse.
The first group (the positive control) was injected with 0.1 M phosphate-buffered saline (PBS) only.
The second and third groups were treated preventively with compound 1 (2 mg/kg) or beclomethasone (1 mg/kg) on days 18-22 via the airway.
The fourth group was treated therapeutically with compound 1 (2 mg/kg) on days 23-25 via the airway.
We examined the effect of compound 1 treatment in the cell response on OVA-induced airway inflammation. OVA (100 μg/50 μL of PBS) was introduced intranasally (i.n.) 6 days after the second intraperitoneal (i.p.) sensitization with OVA. The treatment with compound 1 (preventively and therapeutically), beclomethasone or PBS only was performed according the treatment schedule; see FIG. 2.
Two days after the last i.n. challenge, BAL cells were collected, and differential cell counts were performed to identify the number of various infiltrating inflammatory cells, see FIGS. 3A, 3B.
Female 8-week old Balb/c mice were obtained from Harlan Farm (Blackthorn, UK). The animals were kept under specific-pathogen-free (SPF) conditions with temperature control and HEPA system for breeding of laboratory animals. The manipulations were approved by the Animal Care Commission at the Institute of Microbiology in accordance with the International regulations (EU Directive 2010/63/EU).
Experiments were performed during the light phase of the cycle. The animals were allowed to adapt to the laboratory for at least 1 h before testing and were used only once. 40 mice (n=10/group) were separated into 4 groups:
Group 1: OVA only Group 2: OVA+beclomethasone (1 mg/kg) Group 3: OVA+compound 1 (preventively; 2 mg/kg) Group 4: OVA+compound 1 (therapeutically; 2 mg/kg)
The experimental procedure was carried out as described in literature reference 22. The procedure is as follows: • (1) using scissors, a small incision in the neck skin on the trachea was made and the skin upwards was opened to expose the salivary glands; the trachea was exposed; • (2) a small semi-excision of the trachea was made to allow a 21-G lavage tube to pass into the trachea; • (3) collection of the lavage fluid—0.5 mL of sterile PBS was injected into the lung. The saline from the first lavage was aspirate; the procedure was repeated 5 times; • (4) all lavages were pooled and were centrifuge for 5 min. at 300×g/4° C. to pellet the cells; the supernatant was discarded; • (5) the pellet was re-suspended in 1.5 mL ice cold PBS and centrifuge for 5 min. at 300×g/4° C.; the supernatant was discarded; • (6) the pellet was re-suspended in 1.0 mL ice cold PBS and the cells were counted; • (7) 50 000 cells were placed on the slide for cytospin; • (8) the cytrospin was performed for 10 min at 700 rpm; and • (9) the slides were air-dried and proceeded to cell staining.
• (1) fix in Solution A (fixative); • (2) dip 5 times in Solution C (red); • (3) dip 5 times in Solution B (blue); • (4) rinse the slides in distilled water; • (5) air-drying of the slides; • (6) mounted the cover slides; and then • (7) 400 cells were counted under light microscopy. Histology Staining was then Performed as Follows: The lungs from all animals were fixed in 10% formalin (pH 7.4). […]

Structure (SMILES) | Eosinophil infiltration into the lungs (BAL) | Lymphocyte infiltration (BAL) | Macrophages infiltration (BAL) | Neutrophil infiltration (BAL)
O=c1oc2cc(O)cc(O)c2c(O)c1-c1coc2c1c(=O)oc1cc(O)cc(O)c12 [Compound 1, 7,9-dihydroxy-3-(4,5,7-trihydroxy-2-oxo-2H-chromene-3-yl)-4H-furo[3,2-c]chromen-4-one] | strongly suppressed | stimulate | stimulate | stimulate
C[C@H]1C[C@H]2[C@@H]3CCC4=CC(=O)C=C[C@]4(C)[C@@]3(Cl)[C@@H](O)C[C@]2(C)[C@@]1(O)C(=O)CO [beclomethasone, reference compound] | suppressed | induced moderate | induced moderate | suppressed
